Numbers after ± are expanded uncertainties.
Test: wn = mass fraction of the nth substance listed
Settings: 101 kPa, Liquid, w1 = 0.321; for electrical conductivity: Phywe conductometer; for mass density: Vibrating tube method

CCN(CC)CC [triethylamine] + O
Settings	electrical conductivity [S/m]	mass density [kg/m3]
284.65 K	0.04696 ± 0.00011	935.6 ± 0.4
285.14 K	0.04816 ± 0.0001	935.2 ± 0.4
285.64 K	0.04926 ± 0.0001	934.7 ± 0.4
286.14 K	0.05046 ± 0.0001	934.2 ± 0.4
286.65 K	0.05156 ± 0.0001	933.7 ± 0.4
287.14 K	0.05276 ± 0.0001	933.1 ± 0.4
287.65 K	0.05396 ± 0.0001	932.5 ± 0.4
288.09 K	0.05496 ± 0.0001	932 ± 0.4
288.59 K	0.05616 ± 0.0001	931.4 ± 0.4
288.89 K	0.05676 ± 0.0001	931 ± 0.4
289.14 K	0.05736 ± 0.00011	930.7 ± 0.4
289.42 K	0.05806 ± 0.0001	930.3 ± 0.4
289.65 K	0.05856 ± 0.0001	930 ± 0.4
289.91 K	0.05916 ± 0.0001	929.6 ± 0.4
290.15 K	0.05976 ± 0.00011	929.3 ± 0.4
290.33 K	0.06026 ± 0.00012	929 ± 0.4
290.44 K	0.06056 ± 0.0001	928.9 ± 0.4
290.55 K	0.06076 ± 0.0001	928.7 ± 0.4
290.65 K	0.06106 ± 0.00013	928.6 ± 0.4
290.75 K	0.06136 ± 0.00013	928.4 ± 0.4
290.84 K	0.06166 ± 0.00013	928.3 ± 0.4
290.94 K	0.06196 ± 0.00012	928.2 ± 0.4
291.05 K	0.06226 ± 0.00012	928 ± 0.4
291.15 K	0.06256 ± 0.00014	927.8 ± 0.4
291.19 K	0.06276 ± 0.00013	927.8 ± 0.4
291.24 K	0.06286 ± 0.00013	927.7 ± 0.4
291.29 K	0.06306 ± 0.00017	927.6 ± 0.4
291.34 K	0.06326 ± 0.00015	927.5 ± 0.4
291.39 K	0.06346 ± 0.00015	927.5 ± 0.4

Source: the NIST ThermoML archive (doi:10.1016/j.fluid.2011.03.031)
